Experimental data: PubChem BioAssay (NCI)
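A five-concentration, 48-hour dose response in 96-well plates underlies each endpoint, interpolated linearly between surrounding concentrations. Here, GI50 denotes the concentration required for 50% inhibition of growth. TGI denotes the concentration required for complete inhibition of growth.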

tested on: BT-549 breast; assay: NCI tumour cell line growth inhibition, 48 h

SMILES | GI50 [nM] | TGI [µM]
Cn1c(I)c(C#CCO[Si](C)(C)C(C)(C)C)c(=O)[nH]c1=O | 16400 | 30.3
CCCCC#CC1=C(Br)C(=O)OC1 | 1800 | 5.91
NC(=S)N/N=C/C(=O)O | > 100000 | > 100
O=C(Nc1ccc(Br)cc1F)c1cc(F)ccc1O | 356 | 1.4
CC/C=C\C[C@H](O)C/C=C1/C(=O)C(Cl)=C[C@@H]1C/C=C\CCCC(=O)OC | 341 | 1.04
c1ccc(-c2nnc(-c3ccccn3)s2)nc1 | > 100000 | > 100
CN1CCN(C2CCN(C(=O)Nc3cc(Oc4ccc(NC(=O)C5(C(=O)Nc6ccc(F)cc6)CC5)c(F)c4)ccn3)CC2)CC1 | 1020 | > 2.71
CCN1CCN(C(=O)[C@@]2(C)CC[C@]3(C)CC[C@]4(C)C(=CC(=O)[C@@H]5[C@@]6(C)CC[C@H](OC7C[C@@H](O)[C@@H](O)C(C)O7)C(C)(C)[C@@H]6CC[C@]54C)[C@@H]3C2)CC1 (stereo partly drawn) | 5840 | 13
Nc1nn2cc(F)cnc2c1C(=O)Nc1cncc(F)c1N1CCC(C(=O)N2CCN(C3COC3)CC2)CC1 | 246 | 1.55

tested on: CAKI-1 renal; assay: NCI tumour cell line growth inhibition, 48 h

SMILES | GI50 [nM] | TGI [µM]
Cn1c(I)c(C#CCO[Si](C)(C)C(C)(C)C)c(=O)[nH]c1=O | 3290 | 12.6
CCCCC#CC1=C(Br)C(=O)OC1 | 1260 | 4.63
NC(=S)N/N=C/C(=O)O | > 100000 | > 100
O=C(Nc1ccc(Br)cc1F)c1cc(F)ccc1O | 314 | 2.62
CC/C=C\C[C@H](O)C/C=C1/C(=O)C(Cl)=C[C@@H]1C/C=C\CCCC(=O)OC | 523 | 1.89
c1ccc(-c2nnc(-c3ccccn3)s2)nc1 | > 100000 | > 100
CN1CCN(C2CCN(C(=O)Nc3cc(Oc4ccc(NC(=O)C5(C(=O)Nc6ccc(F)cc6)CC5)c(F)c4)ccn3)CC2)CC1 | 932 | > 10
CCN1CCN(C(=O)[C@@]2(C)CC[C@]3(C)CC[C@]4(C)C(=CC(=O)[C@@H]5[C@@]6(C)CC[C@H](OC7C[C@@H](O)[C@@H](O)C(C)O7)C(C)(C)[C@@H]6CC[C@]54C)[C@@H]3C2)CC1 (stereo partly drawn) | 7810 | 14.8
Nc1nn2cc(F)cnc2c1C(=O)Nc1cncc(F)c1N1CCC(C(=O)N2CCN(C3COC3)CC2)CC1 | 235 | 3.16

tested on: HCT-116 colon; assay: NCI tumour cell line growth inhibition, 48 h

SMILES | GI50 [nM] | TGI [µM]
Cn1c(I)c(C#CCO[Si](C)(C)C(C)(C)C)c(=O)[nH]c1=O | 14300 | 28.5
CCCCC#CC1=C(Br)C(=O)OC1 | 139 | 0.327
NC(=S)N/N=C/C(=O)O | 14700 | > 100
O=C(Nc1ccc(Br)cc1F)c1cc(F)ccc1O | 440 | 1.96
CC/C=C\C[C@H](O)C/C=C1/C(=O)C(Cl)=C[C@@H]1C/C=C\CCCC(=O)OC | 275 | 0.576
c1ccc(-c2nnc(-c3ccccn3)s2)nc1 | > 100000 | > 100
CN1CCN(C2CCN(C(=O)Nc3cc(Oc4ccc(NC(=O)C5(C(=O)Nc6ccc(F)cc6)CC5)c(F)c4)ccn3)CC2)CC1 | 1050 | > 10
CCN1CCN(C(=O)[C@@]2(C)CC[C@]3(C)CC[C@]4(C)C(=CC(=O)[C@@H]5[C@@]6(C)CC[C@H](OC7C[C@@H](O)[C@@H](O)C(C)O7)C(C)(C)[C@@H]6CC[C@]54C)[C@@H]3C2)CC1 (stereo partly drawn) | 1650 | 5.74
Nc1nn2cc(F)cnc2c1C(=O)Nc1cncc(F)c1N1CCC(C(=O)N2CCN(C3COC3)CC2)CC1 | 942 | > 29.6

tested on: HCT-15 colon; assay: NCI tumour cell line growth inhibition, 48 h

SMILES | GI50 [nM] | TGI [µM]
Cn1c(I)c(C#CCO[Si](C)(C)C(C)(C)C)c(=O)[nH]c1=O | 13500 | 27.6
CCCCC#CC1=C(Br)C(=O)OC1 | 1020 | 
NC(=S)N/N=C/C(=O)O | > 100000 | > 100
O=C(Nc1ccc(Br)cc1F)c1cc(F)ccc1O | 773 | 7.34
CC/C=C\C[C@H](O)C/C=C1/C(=O)C(Cl)=C[C@@H]1C/C=C\CCCC(=O)OC | 387 | 1.67
c1ccc(-c2nnc(-c3ccccn3)s2)nc1 | 83700 | > 100
CN1CCN(C2CCN(C(=O)Nc3cc(Oc4ccc(NC(=O)C5(C(=O)Nc6ccc(F)cc6)CC5)c(F)c4)ccn3)CC2)CC1 | 2040 | > 10
CCN1CCN(C(=O)[C@@]2(C)CC[C@]3(C)CC[C@]4(C)C(=CC(=O)[C@@H]5[C@@]6(C)CC[C@H](OC7C[C@@H](O)[C@@H](O)C(C)O7)C(C)(C)[C@@H]6CC[C@]54C)[C@@H]3C2)CC1 (stereo partly drawn) | 2210 | 8.67
Nc1nn2cc(F)cnc2c1C(=O)Nc1cncc(F)c1N1CCC(C(=O)N2CCN(C3COC3)CC2)CC1 | 165 | 4.13

tested on: HOP-62 NSCLC; assay: NCI tumour cell line growth inhibition, 48 h

SMILES | GI50 [nM] | TGI [µM]
Cn1c(I)c(C#CCO[Si](C)(C)C(C)(C)C)c(=O)[nH]c1=O | > 44100 | > 59
CCCCC#CC1=C(Br)C(=O)OC1 | 7130 | 20.8
NC(=S)N/N=C/C(=O)O | > 100000 | > 100
O=C(Nc1ccc(Br)cc1F)c1cc(F)ccc1O | 1560 | 7.82
CC/C=C\C[C@H](O)C/C=C1/C(=O)C(Cl)=C[C@@H]1C/C=C\CCCC(=O)OC | 530 | 2.25
c1ccc(-c2nnc(-c3ccccn3)s2)nc1 | > 100000 | > 100
CN1CCN(C2CCN(C(=O)Nc3cc(Oc4ccc(NC(=O)C5(C(=O)Nc6ccc(F)cc6)CC5)c(F)c4)ccn3)CC2)CC1 |  | > 3.92
CCN1CCN(C(=O)[C@@]2(C)CC[C@]3(C)CC[C@]4(C)C(=CC(=O)[C@@H]5[C@@]6(C)CC[C@H](OC7C[C@@H](O)[C@@H](O)C(C)O7)C(C)(C)[C@@H]6CC[C@]54C)[C@@H]3C2)CC1 (stereo partly drawn) | 2390 | 10.8
Nc1nn2cc(F)cnc2c1C(=O)Nc1cncc(F)c1N1CCC(C(=O)N2CCN(C3COC3)CC2)CC1 | 676 | 3.98

tested on: HS 578T breast; assay: NCI tumour cell line growth inhibition, 48 h

SMILES | GI50 [nM] | TGI [µM]
Cn1c(I)c(C#CCO[Si](C)(C)C(C)(C)C)c(=O)[nH]c1=O | 20100 | 43.4
CCCCC#CC1=C(Br)C(=O)OC1 | 3890 | 23.1
NC(=S)N/N=C/C(=O)O | > 100000 | > 100
O=C(Nc1ccc(Br)cc1F)c1cc(F)ccc1O | 405 | 4.39
CC/C=C\C[C@H](O)C/C=C1/C(=O)C(Cl)=C[C@@H]1C/C=C\CCCC(=O)OC | 626 | 6.76
c1ccc(-c2nnc(-c3ccccn3)s2)nc1 | > 100000 | > 100
CN1CCN(C2CCN(C(=O)Nc3cc(Oc4ccc(NC(=O)C5(C(=O)Nc6ccc(F)cc6)CC5)c(F)c4)ccn3)CC2)CC1 | 688 | > 2.52
CCN1CCN(C(=O)[C@@]2(C)CC[C@]3(C)CC[C@]4(C)C(=CC(=O)[C@@H]5[C@@]6(C)CC[C@H](OC7C[C@@H](O)[C@@H](O)C(C)O7)C(C)(C)[C@@H]6CC[C@]54C)[C@@H]3C2)CC1 (stereo partly drawn) | 7520 | 17.8
Nc1nn2cc(F)cnc2c1C(=O)Nc1cncc(F)c1N1CCC(C(=O)N2CCN(C3COC3)CC2)CC1 | 191 | 1.48

tested on: NCI-H460 lung; assay: NCI tumour cell line growth inhibition, 48 h

SMILES | GI50 [nM] | TGI [µM]
Cn1c(I)c(C#CCO[Si](C)(C)C(C)(C)C)c(=O)[nH]c1=O | 53800 | > 100
CCCCC#CC1=C(Br)C(=O)OC1 | 14000 | 38.8
NC(=S)N/N=C/C(=O)O | > 100000 | > 100
O=C(Nc1ccc(Br)cc1F)c1cc(F)ccc1O | 491 | 9.75
CC/C=C\C[C@H](O)C/C=C1/C(=O)C(Cl)=C[C@@H]1C/C=C\CCCC(=O)OC | 558 | 2.22
c1ccc(-c2nnc(-c3ccccn3)s2)nc1 | > 100000 | > 100
CN1CCN(C2CCN(C(=O)Nc3cc(Oc4ccc(NC(=O)C5(C(=O)Nc6ccc(F)cc6)CC5)c(F)c4)ccn3)CC2)CC1 | 1440 | > 10
CCN1CCN(C(=O)[C@@]2(C)CC[C@]3(C)CC[C@]4(C)C(=CC(=O)[C@@H]5[C@@]6(C)CC[C@H](OC7C[C@@H](O)[C@@H](O)C(C)O7)C(C)(C)[C@@H]6CC[C@]54C)[C@@H]3C2)CC1 (stereo partly drawn) | 948 | 1.86
Nc1nn2cc(F)cnc2c1C(=O)Nc1cncc(F)c1N1CCC(C(=O)N2CCN(C3COC3)CC2)CC1 | 254 | 7.2

tested on: NCI/ADR-RES ovarian; assay: NCI tumour cell line growth inhibition, 48 h

SMILES | GI50 [nM] | TGI [µM]
Cn1c(I)c(C#CCO[Si](C)(C)C(C)(C)C)c(=O)[nH]c1=O | 19200 | 38.1
CCCCC#CC1=C(Br)C(=O)OC1 | 2040 | 5.9
NC(=S)N/N=C/C(=O)O | 96300 | > 100
O=C(Nc1ccc(Br)cc1F)c1cc(F)ccc1O | 533 | 5.4
CC/C=C\C[C@H](O)C/C=C1/C(=O)C(Cl)=C[C@@H]1C/C=C\CCCC(=O)OC | 581 | 9.14
c1ccc(-c2nnc(-c3ccccn3)s2)nc1 | > 100000 | > 100
CN1CCN(C2CCN(C(=O)Nc3cc(Oc4ccc(NC(=O)C5(C(=O)Nc6ccc(F)cc6)CC5)c(F)c4)ccn3)CC2)CC1 | > 8160 | > 10
CCN1CCN(C(=O)[C@@]2(C)CC[C@]3(C)CC[C@]4(C)C(=CC(=O)[C@@H]5[C@@]6(C)CC[C@H](OC7C[C@@H](O)[C@@H](O)C(C)O7)C(C)(C)[C@@H]6CC[C@]54C)[C@@H]3C2)CC1 (stereo partly drawn) | 2530 | 12.9
Nc1nn2cc(F)cnc2c1C(=O)Nc1cncc(F)c1N1CCC(C(=O)N2CCN(C3COC3)CC2)CC1 | 749 | > 48.5

tested on: SNB-75 CNS; assay: NCI tumour cell line growth inhibition, 48 h

SMILES | GI50 [µM] | TGI [µM]
Cn1c(I)c(C#CCO[Si](C)(C)C(C)(C)C)c(=O)[nH]c1=O | 16.2 | 37.7
CCCCC#CC1=C(Br)C(=O)OC1 | 15.6 | > 100
NC(=S)N/N=C/C(=O)O | > 100 | > 100
O=C(Nc1ccc(Br)cc1F)c1cc(F)ccc1O | 0.225 | 2.11
CC/C=C\C[C@H](O)C/C=C1/C(=O)C(Cl)=C[C@@H]1C/C=C\CCCC(=O)OC | 1.88 | 4.65
c1ccc(-c2nnc(-c3ccccn3)s2)nc1 | 72.9 | > 100
CN1CCN(C2CCN(C(=O)Nc3cc(Oc4ccc(NC(=O)C5(C(=O)Nc6ccc(F)cc6)CC5)c(F)c4)ccn3)CC2)CC1 | 0.365 | > 1.97
CCN1CCN(C(=O)[C@@]2(C)CC[C@]3(C)CC[C@]4(C)C(=CC(=O)[C@@H]5[C@@]6(C)CC[C@H](OC7C[C@@H](O)[C@@H](O)C(C)O7)C(C)(C)[C@@H]6CC[C@]54C)[C@@H]3C2)CC1 (stereo partly drawn) | 6.39 | 12.8
Nc1nn2cc(F)cnc2c1C(=O)Nc1cncc(F)c1N1CCC(C(=O)N2CCN(C3COC3)CC2)CC1 | 0.168 | 1.5

tested on: T-47D breast; assay: NCI tumour cell line growth inhibition, 48 h

SMILES | GI50 [µM] | TGI [µM]
Cn1c(I)c(C#CCO[Si](C)(C)C(C)(C)C)c(=O)[nH]c1=O | 2.92 | 15
CCCCC#CC1=C(Br)C(=O)OC1 | 5.79 | > 31.6
NC(=S)N/N=C/C(=O)O | 21.3 | > 100
O=C(Nc1ccc(Br)cc1F)c1cc(F)ccc1O | 0.511 | 5.59
CC/C=C\C[C@H](O)C/C=C1/C(=O)C(Cl)=C[C@@H]1C/C=C\CCCC(=O)OC | 0.985 | 4.37
c1ccc(-c2nnc(-c3ccccn3)s2)nc1 | 5.32 | > 100
CN1CCN(C2CCN(C(=O)Nc3cc(Oc4ccc(NC(=O)C5(C(=O)Nc6ccc(F)cc6)CC5)c(F)c4)ccn3)CC2)CC1 | 5.56 | > 10
CCN1CCN(C(=O)[C@@]2(C)CC[C@]3(C)CC[C@]4(C)C(=CC(=O)[C@@H]5[C@@]6(C)CC[C@H](OC7C[C@@H](O)[C@@H](O)C(C)O7)C(C)(C)[C@@H]6CC[C@]54C)[C@@H]3C2)CC1 (stereo partly drawn) | 9.57 | 23.1
Nc1nn2cc(F)cnc2c1C(=O)Nc1cncc(F)c1N1CCC(C(=O)N2CCN(C3COC3)CC2)CC1 | 2.04 | > 100
